Measured values from patent publication US11098033B2, “Ku inhibitors and their use” (INDIANA UNIVERSITY RESEARCH AND TECHNOLOGY CORPORATION, priority 2016, dated 2021).
Values joined by “and” are separate entries in the source; they are usually repeats but may differ in a detail not shown here. Equal values may be shown once.

Biological target: T1, Recombinant human Ku heterodimer (Homo sapiens, UniProt P12956+P13010)
T1 construct: made in house; host or cells: insect cells infected with recombinant baculovirus
Experiment: Ku-DNA binding assay
Settings: IC50 (concentration that inhibits 50% of the binding activity), titration into Ku-DNA binding reactions (FIG. 1, FIG. 2)
Description: Ku is a DNA end-binding protein that is essential for the repair of DNA double strand breaks via the NHEJ pathway. The mechanism of DNA binding by Ku is via a toroid structure that encircles double-stranded DNA from a terminus.

T1 sequence (P12956 whole entry): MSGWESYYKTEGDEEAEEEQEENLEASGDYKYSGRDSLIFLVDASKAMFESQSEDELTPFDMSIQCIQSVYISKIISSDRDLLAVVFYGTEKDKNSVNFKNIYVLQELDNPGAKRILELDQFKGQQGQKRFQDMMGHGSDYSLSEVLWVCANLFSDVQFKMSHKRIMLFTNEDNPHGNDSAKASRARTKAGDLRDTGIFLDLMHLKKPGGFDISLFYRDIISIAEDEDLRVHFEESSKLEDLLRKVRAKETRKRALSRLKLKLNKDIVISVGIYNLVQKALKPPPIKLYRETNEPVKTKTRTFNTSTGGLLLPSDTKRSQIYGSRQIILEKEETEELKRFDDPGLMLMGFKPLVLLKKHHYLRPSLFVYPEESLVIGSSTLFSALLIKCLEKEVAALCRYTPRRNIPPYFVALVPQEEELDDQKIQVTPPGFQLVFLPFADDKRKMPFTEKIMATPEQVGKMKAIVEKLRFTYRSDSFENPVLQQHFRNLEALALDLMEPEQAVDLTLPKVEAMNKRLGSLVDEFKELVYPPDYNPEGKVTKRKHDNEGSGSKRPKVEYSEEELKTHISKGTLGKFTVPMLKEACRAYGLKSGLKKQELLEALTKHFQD
T1 sequence (P13010 whole entry): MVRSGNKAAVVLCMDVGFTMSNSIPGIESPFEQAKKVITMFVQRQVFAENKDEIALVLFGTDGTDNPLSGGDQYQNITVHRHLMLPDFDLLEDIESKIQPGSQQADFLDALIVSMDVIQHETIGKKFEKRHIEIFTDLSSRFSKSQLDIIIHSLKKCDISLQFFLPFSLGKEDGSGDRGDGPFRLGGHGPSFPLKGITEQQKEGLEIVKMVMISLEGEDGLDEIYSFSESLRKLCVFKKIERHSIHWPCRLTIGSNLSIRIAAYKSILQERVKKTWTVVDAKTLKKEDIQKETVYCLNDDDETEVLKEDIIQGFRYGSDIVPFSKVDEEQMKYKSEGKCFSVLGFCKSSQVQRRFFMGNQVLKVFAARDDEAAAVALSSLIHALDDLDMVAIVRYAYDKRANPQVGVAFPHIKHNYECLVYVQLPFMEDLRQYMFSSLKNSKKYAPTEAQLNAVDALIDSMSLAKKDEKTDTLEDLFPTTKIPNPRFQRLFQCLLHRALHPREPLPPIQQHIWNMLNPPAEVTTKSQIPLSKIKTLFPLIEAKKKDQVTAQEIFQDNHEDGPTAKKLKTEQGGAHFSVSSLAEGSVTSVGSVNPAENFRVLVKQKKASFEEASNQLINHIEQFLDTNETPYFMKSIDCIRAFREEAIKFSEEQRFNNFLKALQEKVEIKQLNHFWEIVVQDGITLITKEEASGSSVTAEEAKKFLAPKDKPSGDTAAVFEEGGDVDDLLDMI

IC50 [µM] | Compound
~75 | CC1=NN(c2cccc(C(=O)O)c2)C(=O)/C1=C\c1ccc(-c2ccc(Cl)c(C(=O)O)c2)o1 [X80, (Z)-5-(5-((1-(3-Carboxyphenyl)-3-methyl-5-oxo-1H-pyrazol-4(5H)-ylidene)methyl)furan-2-yl)-2-chlorobenzoic acid]
~5 | CCCCOC(=O)c1cc(-c2ccc(/C=C3\C(=O)N(c4ccc(Cl)c(C(=O)O)c4)N=C3C)o2)ccc1Cl [compound 0530, reference compound]

Same assay, conditions: Table 1, purchased second generation inhibitors; several values in a cell = separate determinations; read-out: IC50

IC50 | Compound
21 µM and 19 µM | CC1=NN(c2ccc(Cl)c(C(=O)O)c2)C(=O)/C1=C\c1ccc(-c2ccc([N+](=O)[O-])cc2Br)o1 [compound 0277, reference compound]
13 µM and 7 µM and 9 µM | CC1=NN(c2cccc(C(=O)O)c2)C(=O)/C1=C\c1ccc(-c2cc([N+](=O)[O-])ccc2C)o1 [compound 0302, reference compound]
5.6 µM | CCCCOC(=O)c1cc(-c2ccc(/C=C3\C(=O)N(c4ccc(Cl)c(C(=O)O)c4)N=C3C)o2)ccc1Cl [compound 0530, reference compound]
65 µM | CC1=NN(c2cccc(C(=O)O)c2)C(=O)/C1=C\c1ccc(-c2cccc(C(=O)O)c2)o1 [compound 0803, reference compound]
190 µM | COc1cc([N+](=O)[O-])ccc1-c1ccc(/C=C2\C(=O)N(c3cccc(C(=O)O)c3)N=C2C)o1 [compound 0814, reference compound]
91 µM | CC1=NN(c2cccc(C(=O)O)c2)C(=O)/C1=C\c1ccc(-c2ccccc2C(=O)O)o1 [compound 0949, reference compound]

Same assay, conditions: Table 2, synthesized derivatives; several values in a cell = separate determinations; read-out: IC50

Compound | IC50
CC1=NN(c2cccc(C(=O)O)c2)C(=O)C1Cc1ccc(-c2ccc(Cl)c(C(=O)NCc3ccc(F)cc3)c2)o1 (centres unmarked) [NG-01-65, 3-(4-((5-(4-Chloro-3-((4-fluorobenzyl)carbamoyl)phenyl)furan-2-yl)methyl)-3-methyl-5-oxo-4,5-dihydro-1H-pyrazol-1-yl)benzoic acid] | 8 µM
CCOC(=O)c1cccc(N2N=C(C)/C(=C/c3ccc(-c4ccc(Cl)c(C(=O)Nc5cccc(OC)c5)c4)o3)C2=O)c1 [NG-02-130, (Z)-Ethyl 3-(4-((5-(4-chloro-3-((3-methoxyphenyl)carbamoyl)phenyl)furan-2-yl)methylene)-3-methyl-5-oxo-4,5-dihydro-1H-pyrazol-1-yl)benzoate] | 3 µM
CCOC(=O)c1cccc(N2N=C(C)C(Cc3ccc(-c4ccc(Cl)c(C(=O)Nc5cccc(OC)c5)c4)o3)C2=O)c1 (centres unmarked) [NG-02-131, Ethyl 3-(4-((5-(4-chloro-3-((3-methoxyphenyl)carbamoyl)phenyl)furan-2-yl)methyl)-3-methyl-5-oxo-4,5-dihydro-1H-pyrazol-1-yl)benzoate] | 3 µM
COc1cccc(NC(=O)c2ccc(/C=C3\C(=O)N(c4cccc(C(=O)O)c4)N=C3C)o2)c1 [NG-02-162/ NG-02-162C, (Z)-3-(4-((5-((3-methoxyphenyl)carbamoyl)furan-2-yl)methylene)-3-methyl-5-oxo-4,5-dihydro-1H-pyrazol-1-yl)benzoic acid] | 8 µM and 11 µM
COc1cccc(NC(=O)c2ccc(CC3C(=O)N(c4cccc(C(=O)O)c4)N=C3C)o2)c1 (centres unmarked) [NG-02-165, 3-(4-((5-((3-Methoxyphenyl)carbamoyl)furan-2-yl)methyl)-3-methyl-5-oxo-4,5-dihydro-1H-pyrazol-1-yl)benzoic acid] | 11 µM
COc1cccc(NC(=O)c2cc(-c3ccc(/C=C4\C(=O)N(c5cccc(-c6nnn[nH]6)c5)N=C4C)o3)ccc2Cl)c1 [NG-02-201/ NG-03-244] | 4 µM
COc1cccc(NC(=O)c2cc(-c3ccc(CC4C(=O)N(c5ccc(C(=O)O)cc5)N=C4C)o3)ccc2Cl)c1 (centres unmarked) [NG-03-188, 4-(4-((5-(4-Chloro-3-((3-methoxyphenyl)carbamoyl)phenyl)furan-2-yl)methyl)-3-methyl-5-oxo-4,5-dihydro-1H-pyrazol-1-yl)benzoic acid] | 12.5 µM and 6 µM
COc1cccc(NC(=O)c2cc(-c3ccc(/C=C4\C(=O)N(c5ccc(S(N)(=O)=O)cc5)N=C4C)o3)ccc2Cl)c1 [NG-03-196, (Z)-2-chloro-N-(3-methoxyphenyl)-5-(5-((3-methyl-5-oxo-1-(4-sulfamoylphenyl)-1,5-dihydro-4H-pyrazol-4-ylidene)methyl)furan-2-yl)benzamide] | 20 µM
COc1cccc(NC(=O)c2cc(-c3ccc(/C=C4\C(=O)N(c5cccc(-c6nnn[nH]6)c5)N=C4C)o3)ccc2Cl)c1 [NG-03-201, (Z)-5-(5-((1-(3-(1H-Tetrazol-5-yl)phenyl)-3-methyl-5-oxo-1,5-dihydro-4H-pyrazol-4-ylidene)methyl)furan-2-yl)-2-chloro-N-(3-methoxyphenyl)benzamide] | 4.5 µM and 6.5 µM
COc1ccc(NC(=O)c2cc(-c3ccc(CC4C(=O)N(c5cccc(C(=O)O)c5)N=C4C)o3)ccc2Cl)cc1OC (centres unmarked) [NG-03-206, 3-(4-((5-(4-Chloro-3-((3,4-dimethoxyphenyl)carbamoyl)phenyl)furan-2-yl)methyl)-3-methyl-5-oxo-4,5-dihydro-1H-pyrazol-1-yl)benzoic acid] | 7.5 µM
COc1cccc(NC(=O)c2cc(-c3ccc(CC4C(=O)N(c5cccc(C(=O)O)c5)N=C4C)s3)ccc2Cl)c1 (centres unmarked) [NG-03-207, 3-(4-((5-(4-chloro-3-((3-Methoxyphenyl)carbamoyl)phenyl)thiophen-2-yl)methyl)-3-methyl-5-oxo-4,5-dihydro-1H-pyrazol-1-yl)benzoic acid] | 7 µM
COc1cccc(NC(=O)c2cc(-c3ccc(CC4C(=O)N(c5ccc(C(=O)O)cc5)N=C4C)s3)ccc2Cl)c1 (centres unmarked) [NG-03-238, 4-(4-((5-(4-Chloro-3-((3-methoxyphenyl)carbamoyl)phenyl)thiophen-2-yl)methyl)-3-methyl-5-oxo-4,5-dihydro-1H-pyrazol-1-yl)benzoic acid] | 14 µM

Now from value to compound:

IC50 | Compound
25 µM and > 50 µM | CC1=NN(c2cccc(C(=O)O)c2)C(=O)/C1=C\c1ccc(-c2ccc(Cl)c(C(=O)NCC3CC3)c2)o1 [NG-01-70, (Z)-3-(4-((5-(4-Chloro-3-((cyclopropylmethyl)carbamoyl)phenyl)furan-2-yl)methylene)-3-methyl-5-oxo-4,5-dihydro-1H-pyrazol-1-yl)benzoic acid]
10 µM | CC1=NN(c2cccc(C(=O)O)c2)C(=O)C1Cc1ccc(-c2ccc(Cl)c(C(=O)NCC3CC3)c2)o1 (centres unmarked) [NG-01-72, 3-(4-((5-(4-Chloro-3-((cyclopropylmethyl)carbamoyl)phenyl)furan-2-yl)methyl)-3-methyl-5-oxo-4,5-dihydro-1H-pyrazol-1-yl)benzoic acid]
14 µM | COc1ccc(NC(=O)c2cc(-c3ccc(/C=C4\C(=O)N(c5cccc(C(=O)O)c5)N=C4C)o3)ccc2Cl)cc1OC [NG-03-189, (Z)-3-(4-((5-(4-chloro-3-((3,4-dimethoxyphenyl)carbamoyl)phenyl)furan-2-yl)methylene)-3-methyl-5-oxo-4,5-dihydro-1H-pyrazol-1-yl)benzoic acid]
18 µM | COc1cccc(NC(=O)c2cc(-c3ccc(/C=C4\C(=O)N(c5cccc(C(=O)O)c5)N=C4C)s3)ccc2Cl)c1 [NG-03-203, (Z)-3-(4-((5-(4-chloro-3-((3-methoxyphenyl)carbamoyl)phenyl)thiophen-2-yl)methylene)-3-methyl-5-oxo-4,5-dihydro-1H-pyrazol-1-yl)benzoic acid]
30 µM | CC1=NN(c2ccc(S(N)(=O)=O)cc2)C(=O)/C1=C\c1ccc(-c2ccc(Cl)c(C(=O)NCC3CC3)c2)o1 [NG-03-212, (Z)-2-chloro-N-(cyclopropylmethyl)-5-(5-((3-methyl-5-oxo-1-(4-sulfamoylphenyl)-1,5-dihydro-4H-pyrazol-4-ylidene)methyl)furan-2-yl)benzamide]
15 µM | CC1=NN(c2cccc(C(=O)O)c2)C(=O)/C1=C\c1ccc(-c2ccc(Cl)c(C(=O)O)c2)s1 [NG-03-224, (Z)-5-(5-((1-(3-Carboxyphenyl)-3-methyl-5-oxo-1,5-dihydro-4H-pyrazol-4-ylidene)methyl)thiophen-2-yl)-2-chlorobenzoic acid]
7 µM | CC1=NN(c2cccc(C(=O)O)c2)C(=O)/C1=C\c1ccc(-c2ccc(Cl)c(C(=O)NCC3CC3)c2)s1 [NG-03-226, (Z)-3-(4-((5-(4-Chloro-3-((cyclopropylmethyl)carbamoyl)phenyl)thiophen-2-yl)methylene)-3-methyl-5-oxo-4,5-dihydro-1H-pyrazol-1-yl)benzoic acid]
12 µM | CC1=NN(c2cccc(C(=O)O)c2)C(=O)C1Cc1ccc(-c2ccc(Cl)c(C(=O)NCC3CC3)c2)s1 (centres unmarked) [NG-03-231, 3-(4-((5-(4-Chloro-3-((cyclopropylmethyl)carbamoyl)phenyl)thiophen-2-yl)methyl)-3-methyl-5-oxo-4,5-dihydro-1H-pyrazol-1-yl)benzoic acid]
6 µM | CC1=NN(c2ccc(C(=O)O)cc2)C(=O)/C1=C\c1ccc(-c2ccc(Cl)c(C(=O)O)c2)s1 [NG-03-234, (Z)-5-(5-((1-(4-Carboxyphenyl)-3-methyl-5-oxo-1,5-dihydro-4H-pyrazol-4-ylidene)methyl)thiophen-2-yl)-2-chlorobenzoic acid]
8.75 µM | CCOC(=O)c1ccc(N2N=C(C)/C(=C/c3ccc(-c4ccc(Cl)c(C(=O)Nc5cccc(OC)c5)c4)s3)C2=O)cc1 [NG-03-235, Ethyl (Z)-4-(4-((5-(4-chloro-3-((3-methoxyphenyl)carbamoyl)phenyl)thiophen-2-yl)methylene)-3-methyl-5-oxo-4,5-dihydro-1H-pyrazol-1-yl)benzoate]
10 µM | COc1cccc(NC(=O)c2cc(-c3ccc(/C=C4\C(=O)N(c5ccc(C(=O)O)cc5)N=C4C)s3)ccc2Cl)c1 [NG-03-236, (Z)-4-(4-((5-(4-Chloro-3-((3-methoxyphenyl)carbamoyl)phenyl)thiophen-2-yl)methylene)-3-methyl-5-oxo-4,5-dihydro-1H-pyrazol-1-yl)benzoic acid]
10 µM | CC1=NN(c2cccc(C(=O)O)c2)C(=O)/C1=C\c1ccc(-c2ccc(Cl)c(C(=O)NCc3ccccc3)c2)o1 [NG-03-270, (Z)-3-(4-((5-(3-(Benzylcarbamoyl)-4-chlorophenyl)furan-2-yl)methylene)-3-methyl-5-oxo-4,5-dihydro-1H-pyrazol-1-yl)benzoic acid]
